The assay relates to parental untransformed BaF3 cells. In words: Tritiated thymidine uptake cell proliferation assay, parental BaF3. As to conditions: 3H-thymidine uptake, 72 h, medium with IL-3. It is filed as cell-based.

This note sets out measurements from patent US9428500B2, “Alpha-carbolines for the treatment of cancer” (UNIVERSITA' DEGLI STUDI DI MILANO—BICOCCA, priority 2012, dated 2016).

For orientation: IC50 means the midpoint of a concentration-inhibition curve.

`CN1CCN(c2ccc(-c3ccc4[nH]c5nccc(-c6ccc(Oc7ccccc7)cc6)c5c4c3)cc2)CC1` [Example 48, 6-(4-(4-methylpiperazin-1-yl)phenyl)-4-(4-phenoxyphenyl)-9H-pyrido[2,3-b]indole]: for the setting “Mus musculus, BaF3”, the IC50 stood at 2.1 µM. For “62:38 mixture of (E)-6-(4-(4-methylpiperazin-1-yl)phenyl)-4-(1-phenylbut-1-en-2-yl)-9H-pyrido[2,3-b]indole and (E)-6-(4-(4-methylpiperazin-1-yl)phenyl)-4-(1-phenylbut-1-en-1-yl)-9H-pyrido[2,3-b]indole [Example 31]”, the IC50 is 0.93 µM. For the compound `CC(C)[Si](C#Cc1ccnc2[nH]c3ccc(-c4ccc(N5CCN(C)CC5)cc4)cc3c12)(C(C)C)C(C)C` [Example 43, 6-(4-(4-Methylpiperazin-1-yl)phenyl)-4-((triisopropylsilyl)ethynyl)-9H-pyrido[2,3-b]indole], the IC50 (Mus musculus, BaF3) turned out to be 3.4 µM. As for `CN1CCN(c2ccc(-c3ccc4[nH]c5nccc(C#Cc6ccccc6Cl)c5c4c3)cc2)CC1` [Example 42, 4-((2-Chlorophenyl)ethynyl)-6-[4-(4-methylpiperazin-1-yl)-phenyl]-9H-pyrido[2,3-b]indole], the IC50 (Mus musculus, BaF3) turned out to be 2.1 µM.

`COc1cc(C(=O)c2ccccc2)c(O)cc1-c1ccnc2[nH]c3ccc(-c4ccc(N5CCN(C)CC5)cc4)cc3c12` [Example 51, (2-hydroxy-5-methoxy-4-(6-(4-(4-methylpiperazin-1-yl)phenyl)-9H-pyrido[2,3-b]indol-4-yl)phenyl)(phenyl)methanone]: the IC50 (Mus musculus, BaF3) came out at 0.72 µM. With `CN1CCN(c2ccc(-c3ccc4[nH]c5nccc(C#Cc6ccccc6)c5c4c3)cc2)CC1` [Example 37, 6-[4-(4-Methylpiperazin-1-yl)-phenyl]-4-phenylethynyl-9H-pyrido[2,3-b]indole], the IC50 (Mus musculus, BaF3) turned out to be 4.4 µM.

For `CN1CCN(c2ccc(-c3ccc4[nH]c5nccc(/C=C/c6cccc(F)c6)c5c4c3)cc2)CC1` [Example 6, (E)-4-[2-(3-Fluorophenyl)vinyl]-6-[4-(4-methylpiperazin-1-yl)-phenyl]-9H-pyrido[2,3-b]indole], the IC50 (Mus musculus, BaF3) was found to be 9.5 µM. The same measure, in the same setting: the figure for `CN1CCN(c2ccc(-c3ccc4[nH]c5nccc(N6CCN(Cc7ccccc7)CC6)c5c4c3)cc2)CC1` [Example 59, 4-(4-benzylpiperazin-1-yl)-6-(4-(4-methylpiperazin-1-yl)phenyl)-9H-pyrido[2,3-b]indole] is 0.83 µM; for `CN1CCN(c2ccc(-c3ccc4[nH]c5nccc(Nc6cccc([N+](=O)[O-])c6)c5c4c3)cc2)CC1` [Example 35, 6-(4-(4-Methylpiperazin-1-yl)phenyl)-N-(3-nitrophenyl)-9H-pyrido[2,3-b]indol-4-amine] it is 0.48 µM. On the same count and under the same terms, the figure for `COc1cc(Cc2ccccc2)c(O)cc1-c1ccnc2[nH]c3ccc(-c4ccc(N5CCN(C)CC5)cc4)cc3c12` [Example 53, 2-benzyl-4-methoxy-5-(6-(4-(4-methylpiperazin-1-yl)phenyl)-9H-pyrido[2,3-b]indol-4-yl)phenol] is 1.8 µM. With `CC/C=C(\c1ccccc1)c1ccnc2[nH]c3ccc(-c4ccc(N5CCN(C)CC5)cc4)cc3c12` [Example 30, (E)-6-[4-(4-Methylpiperazin-1-yl)-phenyl]-4-(1-phenyl-but-1-enyl)-9H-pyrido[2,3-b]indole], the IC50 (Mus musculus, BaF3) came to 0.22 µM. The same measure, in the same setting: to `COc1ccc(/C=C/c2ccnc3[nH]c4ccc(-c5ccc(N6CCN(C)CC6)cc5)cc4c23)cc1` [Example 7, (E)-4-[2-(4-Methoxyphenyl)vinyl]-6-[4-(4-methylpiperazin-1-yl)-phenyl]-9H-pyrido[2,3-b]indole] belongs 4.1 µM; to `C/C(=C\c1ccccc1C(F)(F)F)c1ccnc2[nH]c3ccc(-c4ccc(N5CCN(C)CC5)cc4)cc3c12` [Example 3, (E)-6-[4-(4-Methylpiperazin-1-yl)-phenyl]-4-[1-(2-(trifluoromethyl)phenyl)prop-1-en-2-yl]-9H-pyrido[2,3-b]indole], 2.4 µM; to `CN1CCC(N2CCN(c3ccc(-c4ccc5[nH]c6nccc(/C=C/c7ccccc7C(F)(F)F)c6c5c4)cc3)CC2)CC1` [Example 22, (E)-6-(4-(4-(1-Methylpiperidin-4-yl)piperazin-1-yl)phenyl)-4-(2-(2-(trifluoromethyl)phenyl)vinyl)-9H-pyrido[2,3-b]indole], 3.9 µM.

With `COc1ccccc1/C=C/c1ccnc2[nH]c3ccc(-c4ccc(N5CCN(C)CC5)cc4)cc3c12` [Example 10, (E)-4-(2-(2-Methoxyphenyl)vinyl)-6-(4-(4-methylpiperazin-1-yl)phenyl)-9H-pyrido[2,3-b]indole], the IC50 (Mus musculus, BaF3) stood at 2.1 µM. On to `CN1CCN(c2ccc(-c3ccc4[nH]c5nccc(C#Cc6ccccc6F)c5c4c3)cc2)CC1` [Example 41, 4-((2-Fluorophenyl)ethynyl)-6-[4-(4-methylpiperazin-1-yl)-phenyl]-9H-pyrido[2,3-b]indole], for which the IC50 (Mus musculus, BaF3) amounted to 2.5 µM. Still for that read-out and setting: the figure for `CN1CCN(c2ccc(-c3ccc4[nH]c5nccc(/C(=C/c6ccccc6)c6ccccc6)c5c4c3)cc2)CC1` [Example 25, (E)-4-(1,2-Diphenylvinyl)-6-[4-(4-methylpiperazin-1-yl)-phenyl]-9H-pyrido[2,3-b]indole] is 7.5 µM; for `CN1CCN(c2ccc(-c3ccc4[nH]c5nccc(-c6ccc(-c7ccc(F)cc7)nc6)c5c4c3)cc2)CC1` [Example 49, 4-(6-(4-fluorophenyl)pyridin-3-yl)-6-(4-(4-methylpiperazin-1-yl)phenyl)-9H-pyrido[2,3-b]indole] it is 3.2 µM.

As to `CN1CCN(c2ccc(-c3ccc4[nH]c5nccc(-c6ccc(C(O)c7ccccc7)cc6)c5c4c3)cc2)CC1` (stereo not drawn) [Example 33, (4-{6-[4-(4-Methylpiperazin-1-yl)-phenyl]-9H-pyrido[2,3-b]indol-4-yl}-phenyl)-phenyl-methanol], the IC50 (Mus musculus, BaF3) is 1 µM. For the compound `CN1CCC(N2CCN(c3ccc(-c4ccc5[nH]c6nccc(-c7ccc(Cc8ccccc8)cc7)c6c5c4)cc3)CC2)CC1` [Example 21, 4-(4-Benzylphenyl)-6-(4-(4-(1-methylpiperidin-4-yl)piperazin-1-yl)phenyl)-9H-pyrido[2,3-b]indole], the IC50 (Mus musculus, BaF3) came to 3.7 µM.

Turning to `CN1CCN(c2ccc(-c3ccc4[nH]c5nccc(-c6ccc(COc7cccc(C(F)(F)F)c7)cc6)c5c4c3)cc2)CC1` [Example 9, 6-[4-(4-Methylpiperazin-1-yl)-phenyl]-4-[4-(3-trifluoromethyl-phenoxymethyl)-phenyl]-9H-pyrido[2,3-b]indole], the IC50 (Mus musculus, BaF3) was 25 µM. In the case of `CN1CCN(c2ccc(-c3ccc4[nH]c5nccc(-c6ccc(-c7ccccc7)cc6F)c5c4c3)cc2)CC1` [Example 15, 4-(3-Fluoro-biphenyl-4-yl)-6-[4-(4-methylpiperazin-1-yl)-phenyl]-9H-pyrido[2,3-b]indole], the IC50 (Mus musculus, BaF3) is 6.3 µM.

On to `CN1CCN(c2ccc(-c3ccc4[nH]c5nccc(Nc6ccccc6[N+](=O)[O-])c5c4c3)cc2)CC1` [Example 34, {6-[4-(4-Methylpiperazin-1-yl)-phenyl]-9H-pyrido[2,3-b]indol-4-yl}-(2-nitro-phenyl)-amine], for which, under “Mus musculus, BaF3”, the IC50 worked out at 0.86 µM. The same measure, in the same setting: to `CN1CCN(c2ccc(-c3ccc4[nH]c5nccc(-c6ccc(-c7ccccc7)cc6)c5c4c3)cc2)CC1` [Example 5, 4-Biphenyl-4-yl-6-[4-(4-methylpiperazin-1-yl)-phenyl]-9H-pyrido[2,3-b]indole] belongs over 25 µM; to `CN1CCN(c2ccc(-c3ccc4[nH]c5nccc(/C=C/c6ccccc6)c5c4c3)cc2)CC1` [Example 2, (E)-6-[4-(4-Methylpiperazin-1-yl)-phenyl]-4-(2-phenylvinyl)-9H-pyrido[2,3-b]indole], 0.8 µM. The same measure, in the same setting: the figure for `COc1cc(-c2ccnc3[nH]c4ccc(-c5ccc(N6CCN(C)CC6)cc5)cc4c23)c(OC)cc1C(=O)c1ccccc1` [Example 50, (2,5-dimethoxy-4-(6-(4-(4-methylpiperazin-1-yl)phenyl)-9H-pyrido[2,3-b]indol-4-yl)phenyl)(phenyl)methanone] is 1.1 µM. Same read-out and setting: to `COc1cc(-c2ccnc3[nH]c4ccc(-c5ccc(N6CCN(C)CC6)cc5)cc4c23)c(OC)cc1Cc1ccccc1` [Example 52, 4-(4-benzyl-2,5-dimethoxyphenyl)-6-(4-(4-methylpiperazin-1-yl)phenyl)-9H-pyrido[2,3-b]indole] belongs 0.81 µM; to `CC(C)[Si](C=Cc1ccnc2[nH]c3ccc(-c4ccc(N5CCN(C)CC5)cc4)cc3c12)(C(C)C)C(C)C` [Example 32, (E) and (Z)-6-(4-(4-methylpiperazin-1-yl)phenyl)-4-(2-(triisopropylsilyl)vinyl)-9H-pyrido[2,3-b]indole], 6.9 µM; to `CN1CCN(c2ccc(-c3ccc4[nH]c5nccc(/C=C/c6ccccc6F)c5c4c3)cc2)CC1` [Example 18, (E)-4-(2-(2-Fluorophenyl)vinyl)-6-(4-(4-methylpiperazin-1-yl)phenyl)-9H-pyrido[2,3-b]indole], 5.1 µM.

For the compound `CN1CCN(c2ccc(-c3ccc4[nH]c5nccc(Cl)c5c4c3)cc2)CC1` [Example 1, 4-Chloro-6-[4-(4-methylpiperazin-1-yl)-phenyl]-9H-pyrido[2,3-b]indole], the IC50 (Mus musculus, BaF3) turned out to be 1.4 µM. Turning to `CN1CCC(N2CCN(c3ccc(-c4ccc5[nH]c6nccc(Nc7ccccc7[N+](=O)[O-])c6c5c4)cc3)CC2)CC1` [Example 36, 6-(4-(4-(1-Methylpiperidin-4-yl)piperazin-1-yl)phenyl)-N-(2-nitrophenyl)-9H-pyrido[2,3-b]indol-4-amine], where the note is “Mus musculus, BaF3”, the IC50 was found to be 7.1 µM.

`CN1CCN(c2ccc(-c3ccc4[nH]c5nccc(-c6ccc(-c7cccc8ccccc78)cc6)c5c4c3)cc2)CC1` [Example 24, 6-[4-(4-Methylpiperazin-1-yl)-phenyl]-4-(4-naphthalen-1-yl-phenyl)-9H-pyrido[2,3-b]indole]: the IC50 (Mus musculus, BaF3) turned out to be 18 µM.

`CN1CCN(c2ccc(-c3ccc4[nH]c5nccc(/C=C/c6ccc(C(F)(F)F)cc6)c5c4c3)cc2)CC1` [Example 14, (E)-6-(4-(4-Methylpiperazin-1-yl)phenyl)-4-(2-(4-(trifluoromethyl)phenyl)vinyl)-9H-pyrido[2,3-b]indole]: where the note is “Mus musculus, BaF3”, the IC50 is over 25 µM.
